{"source": "paper PMC9556331", "about": "“Structural basis for directional chitin biosynthesis” (Nature, 2022)", "molecules": {"B1": {"name": "Phytophthora sojae chitin synthase PsChs1 (enzyme)", "chain": "MSGAPPPSSGFAPRSYGQQPLSHAPRSSMMSVEYDGIPLPPPSIRSCGSQQYVTSYIPTGAAFPPSSVQDMISSMKSYASATDLVRTYSEIPSVEEALSTLDRAAAALNARRYRDALKLYLEGGYAMANVAERQANPKICNLLTSKGFETLNWCARLCDWIEGRIKEKHPRPGVHKVGIPVSNWDEDWVGPFMDEEEARRMWYTPVYCPHPIDFSNLGYRLRCVETGRRPRLMICITMYNEGPQQLKATLKKLANNLAYLKEQMPGDEKSLTGAFAGDDVWQNVLVCIVADGREQVHPKTLDYLEAIGLYDEDLLTINSAGIGAQCHLFEHTLQLSVNGKCLLPIQTVFALKENKASKLDSHHWYFNAFAEQIQPEYTAVMDVGTMLTKSALYHLLFAFERNHQIGGACGQLTVDNPFENLSNWVISAQHFEYKISNILDKSLESCFGFISVLPGAFSAYRYEAIRGAPLDAYFQTLNIELDVLGPFIGNMYLAEDRILSFEVVARKNCNWTMHYVKDAVARTDVPHDLVGLISQRKRWLNGAFFATLFSIWNWGRIYSESKHTFVRKMAFLVFYVYHLLYTAFGFFLPANLYLALFFIVFQGFQQNRLEFIDTSEYSQTVLDCAVYIYNFSYLFGLLMLIIIGLGNNPKHMKLTYYFVGAVFGLMMMLSSLVGAGIFFSTPATVHSIVVSILTVGVYFIASALHGEVHHIFMTFTHYTALIPSFVNIFTIYSFCNLQDLSWGTKGLHDDPLLAASLDETEKGDFKDVIAKRRALEELRREEKERVENRKKNFEAFRTNVLLTWAFSNLIFALFVVYFASSSTYMPVLYIFVASLNTCRLLGSIGHWVYIHTEGLRGRVIDKSECGNGTGRYPQNSYVQLEEHYAALAEDQRTYASGRTNASVRTVNDVSSAA", "notes": "also called native PsChs1; wild-type PsChs1"}, "B2": {"name": "PsChs1 E495A (used for the UDP-GlcNAc-bound structure) (enzyme)", "chain": "B1 chain with E495A", "notes": "source: HEK293F, transiently transfected, purified as the native PsChs1 (Strep-TactinXT, anti-Flag M2 resin, SEC)"}}, "key": {"[1]": {"biological_target": "T1, chitin synthase PsChs1 (Phytophthora sojae, UniProt G4Z2L3)", "T1 construct": "gene CHS1; full-length PsChs1 with C-terminal tandem twin Strep tag and Flag tag; residues 40-860 built, 743-758 disordered; homodimer", "assay": "cryo-EM structure ([…] Å) plus enzyme inhibition kinetics (competitive Ki)", "format": "biochemical"}, "[2]": {"biological_target": "T1, chitin synthase PsChs1", "assay": "cryo-EM structure ([…] Å)", "format": "binding"}, "[3]": {"biological_target": "the molecule itself", "assay": "AUC; purified recombinant PsChs1 in the presence of detergent; molar mass of the main peak compared with the 107 kDa monomer"}, "[4]": {"biological_target": "the molecule itself", "assay": "cryo-EM structure; purified protein at about 5 mg/ml in digitonin buffer; apo or with UDP-GlcNAc, UDP/(GlcNAc)3, UDP or NikZ; C2 symmetry imposed"}}, "note": "Changes are numbered by the printed parent chain. In names and notes the source's numbering stands."}
{"molecule": "C[C@@H]([C@H](N)C(=O)N[C@H](C(=O)O)[C@H]1O[C@@H](n2ccc(=O)[nH]c2=O)[C@H](O)[C@@H]1O)[C@H](O)c1ccc(O)cn1", "note": "[NikZ, nikkomycin Z]", "values": [{"measurement": "Ki", "setting": "[1]", "value": "151 ± 4.8", "unit": "µM"}]}
{"molecule": "O=c1ccn([C@@H]2O[C@H](COP(=O)(O)OP(=O)(O)O)[C@@H](O)[C@H]2O)c(=O)[nH]1", "note": "[UDP]", "values": [{"measurement": "cryo-EM structure (3.1 Å)", "setting": "[2]", "value": "The UDP-bound dimeric PsChs1 structure represents its nascent chitin-released state"}]}
{"molecule": "B1", "values": [{"measurement": "stoichiometry N", "setting": "[3]", "value": 2}]}
{"molecule": "B2", "values": [{"measurement": "stoichiometry N", "setting": "[4]", "value": 2}]}
